This assay has as its target T1, cellular PARG (Homo sapiens, UniProt Q86W56).
T1 construct: endogenous in cells; host or cells: HeLa
Description: Nuclear PAR accumulation assay (immunofluorescence high-content imaging, MMS-treated HeLa cells). Format: cell-based. Conditions: 1 hour compound then MMS 50 μg/mL for an additional hour. As for the experimental part: HeLa cells were plated at 15,000 cells/well in a 96-well plate the day before compound treatment and then treated with varying concentrations of test compound and incubated for 1 hour at 37° C.+5% CO2. Following test compound treatment, methylmethane sulfonate (MMS) was added to a final concentration of 50 μg/mL and the cells were incubated for an additional hour. Following treatment, the cells were fixed with ice cold 95% methanol and the plates sealed and placed at -20° C. for 15 minutes. The cells were then washed once with phosphate buffered saline (PBS) and permeabilized with 0.10% Triton-X 100 for 20 minutes at room temperature. […] The cells were then washed three times with PBS before incubation with a fluorescently conjugated goat anti-mouse antibody (Invitrogen A32723) diluted 1:500 in 5% FBS+0.1% Tween-20+PBS for 1 hour at room temperature. The cells were again washed three times with PBS and the nuclei labeled by incubating with 1 μg/mL DAPI (4′,6-diamidino-2-phenylindole). Nuclear PAR accumulation was evaluated using high-content fluorescence microscopy. Four fields for each well were acquired at 20× magnification resulting in at least 1,000 cells analyzed per well. […] Both the average intensity per nucleus and percent PAR positive cells were quantified. […] Concentration-response-curves and IC50 values were generated using four parameter logistic curve fit software.
Representative data for exemplary compounds is presented in Table 32, Table 33 and Table 34.

T1 sequence (Q86W56 whole entry): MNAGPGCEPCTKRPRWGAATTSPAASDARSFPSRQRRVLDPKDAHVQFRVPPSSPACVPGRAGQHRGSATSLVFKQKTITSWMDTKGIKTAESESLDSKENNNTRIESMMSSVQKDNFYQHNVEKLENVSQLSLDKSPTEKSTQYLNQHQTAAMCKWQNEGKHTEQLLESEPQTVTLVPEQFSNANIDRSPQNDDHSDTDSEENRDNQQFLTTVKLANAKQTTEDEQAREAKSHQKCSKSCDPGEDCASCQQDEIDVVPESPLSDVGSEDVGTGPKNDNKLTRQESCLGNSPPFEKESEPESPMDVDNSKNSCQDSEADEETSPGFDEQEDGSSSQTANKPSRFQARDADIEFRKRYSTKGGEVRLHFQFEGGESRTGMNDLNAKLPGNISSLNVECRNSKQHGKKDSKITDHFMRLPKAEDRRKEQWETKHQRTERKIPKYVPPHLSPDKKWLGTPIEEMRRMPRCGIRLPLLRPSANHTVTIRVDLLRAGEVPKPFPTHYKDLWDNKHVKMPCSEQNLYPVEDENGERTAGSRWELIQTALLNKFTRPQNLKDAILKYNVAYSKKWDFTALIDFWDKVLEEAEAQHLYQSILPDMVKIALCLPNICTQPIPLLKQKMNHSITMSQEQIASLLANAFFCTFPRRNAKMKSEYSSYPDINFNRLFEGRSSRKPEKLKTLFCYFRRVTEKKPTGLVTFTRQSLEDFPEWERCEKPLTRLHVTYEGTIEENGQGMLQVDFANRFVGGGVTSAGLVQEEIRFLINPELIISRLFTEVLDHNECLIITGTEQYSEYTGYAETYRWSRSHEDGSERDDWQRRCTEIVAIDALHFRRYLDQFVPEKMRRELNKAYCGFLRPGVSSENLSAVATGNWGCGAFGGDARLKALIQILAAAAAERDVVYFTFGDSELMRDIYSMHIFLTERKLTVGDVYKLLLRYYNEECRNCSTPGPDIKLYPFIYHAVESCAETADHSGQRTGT

One may read the IC50 as the concentration that gives 50% inhibition. Read a low IC50 as higher potency. On to `C#CC1(C)CN=C2N(Cc3cnn(C)c3)C(=O)c3cc(S(=O)(=O)NC4(C)CC4)ccc3N21` (single isomer, unassigned) [Example 271, 1-ethynyl-1-methyl-4-((1-methyl-1H-pyrazol-4-yl)methyl)-N-(1-methylcyclopropyl)-5-oxo-1,2,4,5-tetrahydroimidazo[1,2-a]quinazoline-7-sulfonamide], for which the IC50 was less than 100 nM. `C#CC1(C)CN=C2N(Cc3cnn(C)c3)C(=O)c3cc(S(=O)(=O)NC4(C)CC4)ccc3N21` (single isomer, unassigned) [Example 272, 1-ethynyl-1-methyl-4-((1-methyl-1H-pyrazol-4-yl)methyl)-N-(1-methylcyclopropyl)-5-oxo-1,2,4,5-tetrahydroimidazo[1,2-a]quinazoline-7-sulfonamide] showed a half-inhibitory concentration (IC50) of less than 100 nM. The value for `C[C@@H]1CN=C2N(Cc3cnn(C)c3)C(=O)c3cc(S(=O)(=O)NC4(C)CC4)cc(C4CC4)c3N21` [Example 1, (R)-9-cyclopropyl-1-methyl-4-((1-methyl-1H-pyrazol-4-yl)methyl)-N-(1-methylcyclopropyl)-5-oxo-1,2,4,5-tetrahydroimidazo[1,2-a]quinazoline-7-sulfonamide] was less than 100 nM; that for `C[C@@H]1CN=C2N(Cc3cnn(C)c3)C(=O)c3cc(S(=O)(=O)NC4(C)CC4)cc(N4CCC4)c3N21` [Example 2, (R)-9-(azetidin-1-yl)-1-methyl-4-((1-methyl-1H-pyrazol-4-yl)methyl)-N-(1-methylcyclopropyl)-5-oxo-1,2,4,5-tetrahydroimidazo[1,2-a]quinazoline-7-sulfonamide] was less than 100 nM. The figure for `Cn1cc(CN2C(=O)c3cc(S(=O)(=O)NC4(C)CC4)cc(Br)c3N3CC(C)(C)N=C23)cn1` [Example 3, 9-bromo-2,2-dimethyl-4-((1-methyl-1H-pyrazol-4-yl)methyl)-N-(1-methylcyclopropyl)-5-oxo-1,2,4,5-tetrahydroimidazo[1,2-a]quinazoline-7-sulfonamide] is 100 to 1000 nM; for `CN1CC=C(c2cc(S(=O)(=O)NC3(C)CC3)cc3c2N2CC(C)(C)N=C2N(Cc2cnn(C)c2)C3=O)CC1` [Example 4, 2,2-dimethyl-9-(1-methyl-1,2,3,6-tetrahydropyridin-4-yl)-4-((1-methyl-1H-pyrazol-4-yl)methyl)-N-(1-methylcyclopropyl)-5-oxo-1,2,4,5-tetrahydroimidazo[1,2-a]quinazoline-7-sulfonamide] it is less than 100 nM. The value for `CCc1noc(C)c1CN1C(=O)c2cc(S(=O)(=O)NC3(C)CC3)ccc2N2C1=NC[C@H]2C` [Example 5, (R)-4-((3-ethyl-5-methylisoxazol-4-yl)methyl)-1-methyl-N-(1-methylcyclopropyl)-5-oxo-1,2,4,5-tetrahydroimidazo[1,2-a]quinazoline-7-sulfonamide] was less than 100 nM; that for `C[C@@H]1CN=C2N(Cc3cnn(C)c3)C(=O)c3cc(S(=O)(=O)NC4(C)CC4)cc(-c4ccc(F)cn4)c3N21` [Example 6, (R)-9-(5-fluoropyridin-2-yl)-1-methyl-4-((1-methyl-1H-pyrazol-4-yl)methyl)-N-(1-methylcyclopropyl)-5-oxo-1,2,4,5-tetrahydroimidazo[1,2-a]quinazoline-7-sulfonamide] was less than 100 nM; that for `COCc1nocc1CN1C(=O)c2cc(S(=O)(=O)NC3(C)CC3)ccc2N2C1=NC[C@H]2C` [Example 7, (R)-4-((3-(methoxymethyl)isoxazol-4-yl)methyl)-1-methyl-N-(1-methylcyclopropyl)-5-oxo-1,2,4,5-tetrahydroimidazo[1,2-a]quinazoline-7-sulfonamide] was 100 to 1000 nM. For `Cc1noc(C2CC2)c1CN1C(=O)c2cc(S(=O)(=O)NC3(C)CC3)ccc2N2C1=NC[C@H]2C` [Example 8, (R)-4-((5-cyclopropyl-3-methylisoxazol-4-yl)methyl)-1-methyl-N-(1-methylcyclopropyl)-5-oxo-1,2,4,5-tetrahydroimidazo[1,2-a]quinazoline-7-sulfonamide], the IC50 was less than 100 nM. `COc1ccc(CN2C(=O)c3cc(S(=O)(=O)NC4(C)CC4)ccc3N3C2=NC[C@H]3C)cc1` [Example 9, (R)-4-(4-methoxybenzyl)-1-methyl-N-(1-methylcyclopropyl)-5-oxo-1,2,4,5-tetrahydroimidazo[1,2-a]quinazoline-7-sulfonamide] returned a half-maximal inhibitory concentration (IC50) of 100 to 1000 nM. The figure for `C[C@@H]1CN=C2N(Cc3cnn(C)c3)C(=O)c3cc(S(=O)(=O)NC4(C)CC4)cc(N4CCN(C)CC4)c3N21` [Example 10, (R)-1-methyl-4-((1-methyl-1H-pyrazol-4-yl)methyl)-N-(1-methylcyclopropyl)-9-(4-methylpiperazin-1-yl)-5-oxo-1,2,4,5-tetrahy droimidazo[1,2-a]quinazoline-7-sulfonamide] is less than 100 nM. The value for `Cn1cc(CN2C(=O)c3cc(S(=O)(=O)NC4(C)CC4)cc(C4=CCCC4)c3N3CC(C)(C)N=C23)cn1` [Example 11, 9-(cyclopent-1-en-1-yl)-2,2-dimethyl-4-((1-methyl-1H-pyrazol-4-yl)methyl)-N-(1-methylcyclopropyl)-5-oxo-1,2,4,5-tetrahydroimidazo[1,2-a]quinazoline-7-sulfonamide] was less than 100 nM. On to `Cn1cc(CN2C(=O)c3cc(S(=O)(=O)NC4(C)CC4)cc(C4=CCOCC4)c3N3CC(C)(C)N=C23)cn1` [Example 12, 9-(3,6-dihydro-2H-pyran-4-yl)-2,2-dimethyl-4-((1-methyl-1H-pyrazol-4-yl)methyl)-N-(1-methylcyclopropyl)-5-oxo-1,2,4,5-tetrahydroimidazo[1,2-a]quinazoline-7-sulfonamide], for which the IC50 is less than 100 nM. The value for `C[C@@H]1CN=C2N(Cc3cnn(C)c3)C(=O)c3cc(S(=O)(=O)NC4(C)CC4)cc(N4CCNCC4)c3N21` [Example 13, (R)-1-methyl-4-((1-methyl-1H-pyrazol-4-yl)methyl)-N-(1-methylcyclopropyl)-5-oxo-9-(piperazin-1-yl)-1,2,4,5-tetrahydroimidazo[1,2-a]quinazoline-7-sulfonamide] was 100 to 1000 nM; that for `[2H]C([2H])(c1cnn(C)c1)N1C(=O)c2cc(S(=O)(=O)NC3(C)CC3)ccc2N2C1=NC[C@H]2C#CC1CC1` [Example 14, (R)-1-(cyclopropylethynyl)-4-((1-methyl-1H-pyrazol-4-yl)methyl-d2)-N-(1-methylcyclopropyl)-5-oxo-1,2,4,5-tetrahydroimidazo[1,2-a]quinazoline-7-sulfonamide] was less than 100 nM. `[2H]C([2H])(c1cnn(C)c1)N1C(=O)c2cc(S(=O)(=O)NC3(C)CC3)cc(Br)c2N2C1=NC[C@H]2C#CC1CC1` [Example 15, (R)-9-bromo-1-(cyclopropylethynyl)-4-((1-methyl-1H-pyrazol-4-yl)methyl-d2)-N-(1-methylcyclopropyl)-5-oxo-1,2,4,5-tetrahydroimidazo[1,2-a]quinazoline-7-sulfonamide] had a 50% inhibitory concentration (IC50) of less than 100 nM. The value for `[2H]C([2H])(c1cnn(C)c1)N1C(=O)c2cc(S(=O)(=O)NC3(C)CC3)cc(Cl)c2N2C1=NC[C@H]2C#CC1CC1` [Example 16, (R)-9-chloro-1-(cyclopropylethynyl)-4-((1-methyl-1H-pyrazol-4-yl)methyl-d2)-N-(1-methylcyclopropyl)-5-oxo-1,2,4,5-tetrahydroimidazo[1,2-a]quinazoline-7-sulfonamide] was less than 100 nM.
